Experimental data taken from paper PMC7228129, “Evaluation of Developmental Toxicity, Developmental Neurotoxicity, and Tissue Dose in Zebrafish Exposed to GenX and Other PFAS” (Environmental Health Perspectives, 2020).
“Also recorded” adds a separate entry of the source. Where two headings read alike, the source gives them in different places.

Experiments:
zebrafish [1] = details: Table 5 summary, cited from earlier work
zebrafish [2] = details: cited from earlier work; for EC50: previously published zebrafish DevTox assay data, read-out: EC50 for developmental toxicity
zebrafish [3] = assay: Developmental neurotoxicity (DNT) assay, light/dark locomotor behavior test; assay type: in vivo, Danio rerio; details: for Developmental neurotoxicity / locomotor activity outcome / Concentration causing hyperactivity in D1 period / Concentration causing hyperactivity in D2 period / Concentration causing hyperactivity in L2 period / Concentration causing hyperactivity in L1 period: tested 6 dpf; for DNT assay phenotype: Table 5 summary, this study (some rows also list literature); for Concentration causing hyperactivity in D1 period: dark 1; for Concentration causing hyperactivity in D1 period / Concentration causing hyperactivity in D2 period / Concentration causing hyperactivity in L2 period / Concentration causing hyperactivity in L1 period: daily 0–5 dpf, vs 0.4% DMSO; for Concentration causing hyperactivity in D2 period: dark 2; for Concentration causing hyperactivity in L2 period: light 2
Method: At 0 dpf, zebrafish embryos were bleached as previously described ([Tal et al. 2017]). A single embryo at the dome-to-epiboly stages ([Kimmel et al. 1995]) was placed into each individual well of a 96-well plate containing a 40-μm nylon mesh filter (Millipore, Catalog No. MANMN4010) with 400μL of 10% Hanks’ balanced salt solution (HBSS) per well. Filter inserts containing zebrafish embryos were transferred to 96-well culture trays (Millipore, Catalog No. MAMCS9610) containing 250μL of 10% HBSS ([Westerfield 2007]) and 1μL of 250× working solutions per well. A final concentration of 0.4% DMSO was used for all exposure groups and as a vehicle control. In the case of GenX Free Acid in Study 2 (Figure 1), DI water was used as a vehicle control. Daily, from 1–5 dpf, plates underwent 100% media changes to refresh chemical dosing solutions by blotting (Brandel; Catalog No. FPXLR-196) and transferring mesh inserts containing zebrafish to new bottom plates (Millipore; Catalog No. MAMCS9610). To minimize evaporation, plates were sealed (Biorad; Catalog No. MSA5001) and wrapped with parafilm. Plates were maintained on a 14 h:10 h light cycle at 26.0°C and scored daily for death, malformations, hatching, and swim bladder inflation. At 6 dpf, plates were evaluated by two independent observers and DevTox or DNT assays were performed or media and tissue were collected for analytical chemistry analyses as described below.
To increase the likelihood of observing behavioral effects in morphologically normal larvae, the highest concentration evaluated in the DNT assay was the lowest observed effect concentration (LOEC) determined in DevTox assay. Zebrafish were exposed in parallel to 4.4, 7.9, 14.0, 25.1, 44.8, or 80.0μM PFOA, PFHxS, PFHxA, or ADONA or 0.2, 0.3, 0.6, 1.0, 1.8, or 3.1μM PFOS or 0.4% DMSO. Subsequently, as part of Study 1, exposure to 4.4, 7.9, 14.0, 25.1, 44.8, or 80.0μM PFESA1, or 0.4% DMSO was evaluated. In Study 2, zebrafish were exposed to 4.4, 7.9, 14.0, 25.1, 44.8, or 80.0μM GenX Free Acid, or DI water. In Study 3, to increase the likelihood of observing malformations with shorter-chain compounds at multiple test concentrations, the highest concentration evaluated was 100.0μM . Zebrafish were exposed to 5.5, 9.8, 17.6, 31.4, 56.0, or 100.0μM PFBS; 3.1, 5.5, 9.8, 17.6, 31.4, or 56.0μM PFHxS; 1.7, 3.1, 5.5, 9.8, 17.6, or 31.4μM PFHpS; or 0.5, 1.0, 1.7, 3.1, 5.5, or 9.8μM PFOS, or 0.4% DMSO. Subsequently, as part of Study 3, zebrafish were exposed to 3.1, 5.5, 9.8, 17.6, 31.4, or 56.0μM PFPeS, or 0.4% DMSO. Chemical exposures and assessments were performed daily, as described above. To evaluate swimming behavior in a light/dark behavior test, microtiter plates were placed in a dark, temperature-controlled behavior testing room set to 26.0°C for at least 2 h prior to testing. At the time of testing, microtiter plates were placed on a Noldus tracking apparatus. Locomotor activity was recorded (30 frames/s) for a total of 60 min consisting of a 20-min dark acclimation period (0 lux) that was not analyzed followed by a 40-min testing period consisting of a 20-min light period (5.0 lux) and 20-min dark period (0 lux). Videos were analyzed using Ethovision software (version 3.1; Noldus Information Technology) as previously described ([Jarema et al. 2015]). Locomotor activity was collected for each individual fish for each 2-min period (minimum distance moved, set to 0.135cm ). Thus, for a 40-min test, 20 data points were collected per larvae. […] Four additional criteria for inclusion of individual larvae were applied. One, all larvae that were identified as abnormal, severely abnormal, or dead were excluded. Two, larvae with uninflated swim bladders were removed from analyses. Three, individual larvae that moved <2cm in either […] dark period were removed.

[4] = GenX Free Acid stock degradation / stability in DMSO; assay type: physicochemical; details: DMSO as diluent/vehicle
[5] = Study 1, 4.4–80.0 μM daily 0–5 dpf, 0.4% DMSO
[6] = Study 1, light 1 (first 10 min light)

For `O=C(O)C(F)(F)C(F)(F)C(F)(F)C(F)(F)C(F)(F)C(F)(F)C(F)(F)F` [PFOA, Perfluoro-n-octanoic acid], which DNT assay phenotype (zebrafish [1]; ref Ulhaq et al. 2013b) is on record?
The DNT assay phenotype was “Hyperactivity”.

And the DevTox assay phenotype (zebrafish [2]; Table 5 summary, zebrafish, ref Hagenaars et al. 2011, Jantzen et al. 2016, Ulhaq et al. 2013a)?
The DevTox assay phenotype was “Positive”.

What about the “Developmental neurotoxicity / locomotor activity outcome” value (zebrafish [3]; [5]) of the same compound?
Its value is “did not exhibit differences in locomotor activity; also recorded: negative”.

What about the DNT assay phenotype (zebrafish [3]) of the same compound?
Its DNT assay phenotype is “Negative”.

Which “Developmental neurotoxicity / locomotor activity outcome” value (zebrafish [3]; [5]) does the source give for `O=C(O)C(F)(F)C(F)(F)C(F)(F)C(F)(F)C(F)(F)F` [PFHxA, Perfluorohexanoic acid] here?
The value was “hyperactivity in the L2, D1, and D2 periods”.

And the “Concentration causing hyperactivity in D1 period” value (zebrafish [3]; Study 1)?
The value was 14.0 to 25.1 µM.

And the “Concentration causing hyperactivity in D2 period” value (zebrafish [3]; Study 1)?
The value was 14.0 to 25.1 µM.

And the “Concentration causing hyperactivity in L2 period” value (zebrafish [3]; Study 1)?
The value was 25.1 µM.

What about the DNT assay phenotype (zebrafish [3]) of the same compound?
Its DNT assay phenotype is “Hyperactivity^a”.

For `O=C(O)C(F)(F)C(F)OC(F)(F)C(F)(F)C(F)(F)OC(F)(F)F` (stereo not drawn) [ADONA, 4,8-Dioxa-3H-perfluorononanoate], which “Developmental neurotoxicity / locomotor activity outcome” value (zebrafish [3]; [5]) is on record?
Its value is “did not exhibit differences in locomotor activity; also recorded: failed to provoke developmental toxicity or developmental neurotoxicity; also recorded: negative”.

What about the DNT assay phenotype (zebrafish [3]) of the same compound?
Its DNT assay phenotype is “Negative^a”.

Which results are given for `O=S(=O)(O)C(F)(F)C(F)(F)C(F)(F)C(F)(F)C(F)(F)C(F)(F)C(F)(F)C(F)(F)F` [PFOS, Perfluorooctanesulfonic acid]?
DNT assay phenotype (zebrafish [1]; ref Ulhaq et al. 2013b): Hypoactivity; EC50 (zebrafish [2]; ref Padilla et al. 2012): 42.3 µM; EC50 (zebrafish [2]; ref Truong et al. 2014): 3.5 µM; Concentration causing hyperactivity in D1 period (zebrafish [3]; Study 1): 0.6 to 1.8 µM; Concentration causing hyperactivity in L1 period (zebrafish [3]; [6]): 1.0 µM; Concentration causing hyperactivity in L2 period (zebrafish [3]; Study 1): 0.6 to 1.8 µM; Concentration causing hyperactivity in D1 period (zebrafish [3]; Study 3): 1.0 µM; Concentration causing hyperactivity in D2 period (zebrafish [3]; Study 3): no effect; Concentration causing hyperactivity in L1 period (zebrafish [3]; Study 3, light 1): 1.7 to 3.1 µM; Concentration causing hyperactivity in L2 period (zebrafish [3]; Study 3): 1.7 to 3.1 µM; DNT assay phenotype (zebrafish [3]): Hyperactivity

With `O=S(=O)(O)C(F)(F)C(F)(F)OC(F)(C(F)(F)F)C(F)(F)OC(F)=C(F)F` (stereo not drawn) [PFESA1, Perfluoro-3,6-dioxa-4-methyl-7-octene-1-sulfonic acid] as the compound, how does the “Developmental neurotoxicity / locomotor activity outcome” value (zebrafish [3]; [5]) read?
The value was “did not exhibit differences in locomotor activity; also recorded: failed to provoke developmental toxicity or developmental neurotoxicity; also recorded: negative”.

What about the DNT assay phenotype (zebrafish [3]) of the same compound?
Its DNT assay phenotype is “Negative^a”.

For `O=C(O)C(F)(OC(F)(F)C(F)(F)C(F)(F)F)C(F)(F)F` (stereo not drawn) [GenX Free Acid, Perfluoro-2-propoxypropanoic acid], which “Developmental neurotoxicity / locomotor activity outcome” value (zebrafish [3]; Study 2, 4.4–80.0 μM in DI water daily 0–5 dpf) is on record?
The value was “negative; also recorded: failed to provoke developmental toxicity or developmental neurotoxicity”.

What about the DNT assay phenotype (zebrafish [3]) of the same compound?
Its DNT assay phenotype is “Negative^a”.

What about the “Stability in DMSO” value [4] of the same compound?
Its value is “unstable in DMSO; also recorded: not stable in DMSO”.

With `O=S(=O)(O)C(F)(F)C(F)(F)C(F)(F)C(F)(F)C(F)(F)C(F)(F)F` [PFHxS, Perfluorohexanesulfonic acid] as the compound, how does the DNT assay phenotype (zebrafish [1]; ref Khezri et al. 2017) read?
The DNT assay phenotype was “Negative”.

And the EC50 (zebrafish [2]; ref Padilla et al. 2012)?
Its EC50 is 116 µM.

And the EC50 (zebrafish [2]; ref Truong et al. 2014)?
Its EC50 is 115 µM.

What about the “Concentration causing hyperactivity in L1 period” value (zebrafish [3]; [6]) of the same compound?
The value was 14.0 to 25.1 µM.

What about the “Concentration causing hyperactivity in L2 period” value (zebrafish [3]; Study 1) of the same compound?
Its value is 14.0 µM.

And the “Concentration causing hyperactivity in D1 period” value (zebrafish [3]; Study 3)?
The value was 17.6 µM.

What about the “Concentration causing hyperactivity in D2 period” value (zebrafish [3]; Study 3) of the same compound?
The value was 17.6 µM.

And the “Concentration causing hyperactivity in L2 period” value (zebrafish [3]; Study 3)?
The value was 17.6 to 31.4 µM.

And the DNT assay phenotype (zebrafish [3])?
The DNT assay phenotype was “Hyperactivity^a”.
